Data as given in patent publication US20230346827A1 (priority 2020, published 2023).

System: rats subjected to sTBI
Assay: sTBI rats, LMW-DS 1, 5, 15 mg/kg s.c. 30 min post-TBI: HPLC of brain energy metabolites, antioxidants, oxidative/nitrosative stress biomarkers (Example 4)
Type: in vivo, rat
Procedure: Male Wistar rats (n=160) of 300-350 g body weight were used in this study. They were fed with standard laboratory diet and water ad libitum in a controlled environment.
As the accepted anesthetic mixture, animals received 35 mg/kg b.w. ketamine and 0.25 mg/kg body weight midazolam by intramuscular injection. Diffuse sTBI was induced according to the “weight drop” impact acceleration model set up by Marmarou et al. J. Neurosurg. 1994, 80: 291-300. This model causes diffuse axonal injury and it is able to reproduce the physical and mechanical characteristics of the diffuse TBI in humans.
Severe TBI was induced by dropping a 450 g weight from 2 meters height onto the rat head protected by a helmet (metal disk previously fixed on the skull using dental cement) in order to uniformly distribute the mechanical force to the brain. Rats were placed prone on a bed of specific polyurethane foam inserted in a special container; this foam dissipates the major part of the potential energy (deriving from the mechanical forces) and prevents any rebound of the animal after the impact that could produce spinal damages.
After 2 or 7 days from TBI induction, rats were anesthetized again and then immediately sacrificed. These time points are coincident with the worst biochemical derangement (2 days) or, in the case of a mildly injured brain, with a full metabolic recovery (7 days).
The drug treatment consisted in a subcutaneous injection of 0.5 ml of LMW-DS (ILB®, Tikomed, Viken, Sweden, WO 2016/076780) and administered at 3 different concentrations (1, 5 and 15 mg/kg body weight), according to the schematic protocol described below. Sham-operated animals underwent the same procedure of anesthesia but TBI and were used as the control group.
(§1) Rats subjected to sTBI and receiving a single administration of LMW-DS after 30 minutes post-TBI, with sacrifice at 2 days post-TBI. Animals were divided in the following subgroups: • 1. 12 animals subjected to sTBI and treated with 1 mg/kg b.w. LMW-DS • 2. 12 animals subjected to sTBI and treated with 5 mg/kg b.w. LMW-DS • 3. 12 animals subjected to sTBI and treated with 15 mg/kg b.w. LMW-DS
as §1, with “at 7” for “at 2”
Rats (n = 12) subjected to sTBI and receiving repeated administrations of the maximal dose of LMW-DS (15 mg/kg b.w.) after 30 minutes, 3 days and 5 days post-TBI, with sacrifice at 7 days post-TBI. Four additional rats were used for the histo-morphological studies. Total rats in this group: n=16
To minimize metabolite loss, an in vivo craniectomy was performed in all animals during anesthesia. The rat skull was carefully removed, the brain was exposed, sharply cut along the sagittal fissure and the two hemispheres were separated. The hemispheres dedicated to biochemical analyses were freeze-clamped by aluminum tongues pre-cooled in liquid nitrogen and then immersed in liquid nitrogen. The freeze-clamping procedure was introduced to accelerate freezing of the tissue, thus minimizing potential metabolite loss.
Tissue homogenization for metabolite analyses was effected as described below. After the wet weight (w.w.) determination, the frozen hemispheres were placed into 7 ml of ice-cold, nitrogen-saturated, precipitating solution (1:10 w/v) composed by CH3CN + 10 mM KH2PO4, pH 7.40, (3:1; v:v), and the homogenization was performed using an Ultra-Turrax homogenizer set at 24,000 rpm/min (Janke & Kunkel, Staufen, Germany). […]

[1] = 15 mg/kg, 7 d post-sTBI, adimensional ratio

sodium salt of dextran sulfate [LMW-DS]
GDP (15 mg/kg, 2 d post-sTBI): 194.61 ± 26.88 nmol/g w.w.
GDP Glucose (15 mg/kg, 2 d post-sTBI): 84.24 ± 37.54 nmol/g w.w.
GMP (15 mg/kg, 2 d post-sTBI): 178.88 ± 22.46 nmol/g w.w.
GSH (15 mg/kg, 2 d post-sTBI): 2418.94 ± 352.75 nmol/g w.w.
GTP (15 mg/kg, 2 d post-sTBI): 179.07 ± 18.89 nmol/g w.w.
GUANINE (15 mg/kg, 2 d post-sTBI): 1.61 ± 0.40 nmol/g w.w.
GUANOSINE (15 mg/kg, 2 d post-sTBI): 24.35 ± 4.05 nmol/g w.w.
HYPOXANTHINE (15 mg/kg, 2 d post-sTBI): 6.82 ± 1.12 nmol/g w.w.
IMP (15 mg/kg, 2 d post-sTBI): 68.95 ± 12.98 nmol/g w.w.
INOSINE (15 mg/kg, 2 d post-sTBI): 142.91 ± 18.63 nmol/g w.w.
MDA (15 mg/kg, 2 d post-sTBI): 18.28 ± 2.98 nmol/g w.w.
Malonyl-CoA (15 mg/kg, 2 d post-sTBI): 28.73 ± 6.09 nmol/g w.w.
NADH (15 mg/kg, 2 d post-sTBI): 10.83 ± 1.58 nmol/g w.w.
NADPH (15 mg/kg, 2 d post-sTBI): 8.93 ± 0.74 nmol/g w.w.
NADP^+ (15 mg/kg, 2 d post-sTBI): 17.75 ± 4.06 nmol/g w.w.
NAD^+ (15 mg/kg, 2 d post-sTBI): 475.32 ± 80.91 nmol/g w.w.
NO2 (15 mg/kg, 2 d post-sTBI): 72.29 ± 8.71 nmol/g w.w.
NO3 (15 mg/kg, 2 d post-sTBI): 56.50 ± 12.30 nmol/g w.w.
UDP (15 mg/kg, 2 d post-sTBI): 80.00 ± 8.20 nmol/g w.w.
UDP-Gal (15 mg/kg, 2 d post-sTBI): 116.34 ± 9.71 nmol/g w.w.
UDP-GalNac (15 mg/kg, 2 d post-sTBI): 22.37 ± 3.30 nmol/g w.w.
UDP-Glc (15 mg/kg, 2 d post-sTBI): 43.41 ± 6.43 nmol/g w.w.
UDP-GlcNac (15 mg/kg, 2 d post-sTBI): 108.74 ± 9.90 nmol/g w.w.
UMP (15 mg/kg, 2 d post-sTBI): 147.53 ± 20.38 nmol/g w.w.
URACIL (15 mg/kg, 2 d post-sTBI): 15.55 ± 3.04 nmol/g w.w.
URIC ACID (15 mg/kg, 2 d post-sTBI): 26.00 ± 5.33 nmol/g w.w.
URIDINE (15 mg/kg, 2 d post-sTBI): 87.55 ± 15.41 nmol/g w.w.
UTP (15 mg/kg, 2 d post-sTBI): 108.21 ± 16.99 nmol/g w.w.
XANTHINE (15 mg/kg, 2 d post-sTBI): 13.87 ± 1.44 nmol/g w.w.
β-PSEUDOURIDINE (15 mg/kg, 2 d post-sTBI): 7.84 ± 1.57 nmol/g w.w.
NAD^+/NADH (15 mg/kg, 2 d post-sTBI, adimensional ratio): 44.40 ± 7.67
ADENOSINE (15 mg/kg, 7 d post-sTBI): 55.95 ± 41.44 nmol/g w.w.
ADP (15 mg/kg, 7 d post-sTBI): 276.83 ± 36.87 nmol/g w.w.
ADP-Ribose (15 mg/kg, 7 d post-sTBI): 19.21 ± 4.82 nmol/g w.w.
AMP (15 mg/kg, 7 d post-sTBI): 50.50 ± 3.97 nmol/g w.w.
ASCORBIC ACID (15 mg/kg, 7 d post-sTBI): 2853.35 ± 343.64 nmol/g w.w.
ATP (15 mg/kg, 7 d post-sTBI): 1846.63 ± 148.55 nmol/g w.w.
Acetyl-CoA (15 mg/kg, 7 d post-sTBI): 38.60 ± 6.57 nmol/g w.w.
CDP choline (15 mg/kg, 7 d post-sTBI): 10.06 ± 3.23 nmol/g w.w.
CMP (15 mg/kg, 7 d post-sTBI): 47.10 ± 20.04 nmol/g w.w.
CREATININE (15 mg/kg, 7 d post-sTBI): 5.23 ± 0.92 nmol/g w.w.
CTP (15 mg/kg, 7 d post-sTBI): 96.44 ± 25.54 nmol/g w.w.
CYTIDINE (15 mg/kg, 7 d post-sTBI): 33.06 ± 11.63 nmol/g w.w.
CYTOSINE (15 mg/kg, 7 d post-sTBI): 13.87 ± 2.98 nmol/g w.w.
CoA-SH (15 mg/kg, 7 d post-sTBI): 64.93 ± 8.33 nmol/g w.w.
GDP (15 mg/kg, 7 d post-sTBI): 122.07 ± 13.95 nmol/g w.w.
GDP Glucose (15 mg/kg, 7 d post-sTBI): 101.65 ± 11.89 nmol/g w.w.
GMP (15 mg/kg, 7 d post-sTBI): 41.55 ± 19.66 nmol/g w.w.
GSH (15 mg/kg, 7 d post-sTBI): 2390.89 ± 315.16 nmol/g w.w.
GTP (15 mg/kg, 7 d post-sTBI): 479.98 ± 43.64 nmol/g w.w.
GUANINE (15 mg/kg, 7 d post-sTBI): 5.27 ± 2.24 nmol/g w.w.
GUANOSINE (15 mg/kg, 7 d post-sTBI): 20.91 ± 4.36 nmol/g w.w.
HYPOXANTHINE (15 mg/kg, 7 d post-sTBI): 10.21 ± 2.97 nmol/g w.w.
IMP (15 mg/kg, 7 d post-sTBI): 74.70 ± 19.13 nmol/g w.w.
INOSINE (15 mg/kg, 7 d post-sTBI): 104.41 ± 11.72 nmol/g w.w.
MDA (15 mg/kg, 7 d post-sTBI): 6.23 ± 1.03 nmol/g w.w.
Malonyl-CoA (15 mg/kg, 7 d post-sTBI): 7.98 ± 1.44 nmol/g w.w.
NADH (15 mg/kg, 7 d post-sTBI): 11.65 ± 1.63 nmol/g w.w.
NADPH (15 mg/kg, 7 d post-sTBI): 6.66 ± 1.55 nmol/g w.w.
NADP^+ (15 mg/kg, 7 d post-sTBI): 23.75 ± 8.72 nmol/g w.w.
NAD^+ (15 mg/kg, 7 d post-sTBI): 491.52 ± 69.61 nmol/g w.w.
NO2 (15 mg/kg, 7 d post-sTBI): 110.72 ± 23.99 nmol/g w.w.
NO3 (15 mg/kg, 7 d post-sTBI): 161.99 ± 27.67 nmol/g w.w.
UDP (15 mg/kg, 7 d post-sTBI): 37.91 ± 5.33 nmol/g w.w.
UDP-Gal (15 mg/kg, 7 d post-sTBI): 137.57 ± 9.46 nmol/g w.w.
UDP-GalNac (15 mg/kg, 7 d post-sTBI): 17.91 ± 5.13 nmol/g w.w.
UDP-Glc (15 mg/kg, 7 d post-sTBI): 62.97 ± 12.80 nmol/g w.w.
UDP-GlcNac (15 mg/kg, 7 d post-sTBI): 67.47 ± 23.34 nmol/g w.w.
UMP (15 mg/kg, 7 d post-sTBI): 181.82 ± 35.22 nmol/g w.w.
URACIL (15 mg/kg, 7 d post-sTBI): 15.92 ± 3.27 nmol/g w.w.
URIC ACID (15 mg/kg, 7 d post-sTBI): 8.60 ± 2.05 nmol/g w.w.
URIDINE (15 mg/kg, 7 d post-sTBI): 134.04 ± 31.76 nmol/g w.w.
UTP (15 mg/kg, 7 d post-sTBI): 127.42 ± 22.32 nmol/g w.w.
XANTHINE (15 mg/kg, 7 d post-sTBI): 12.71 ± 3.60 nmol/g w.w.
β-PSEUDOURIDINE (15 mg/kg, 7 d post-sTBI): 63.77 ± 11.83 nmol/g w.w.
ATP/ADP [1]: 6.76 ± 0.86
NAD+/NADH [1]: 42.51 ± 5.26
whole brain NAA (5 or 15 mg/kg b.w., 2 days post impact): significantly higher than values found in sTBI rats
ATP levels, % lower than the value of controls (7 days post impact): 16%
NAA concentration, % lower than the value of controls (7 days post impact): 16%
whole brain NAA (increasing single doses or repeat maximal dose, 7 days post sTBI): dose dependent increase
